# Experiments:
# Format in all cases: in vivo
# [1] = test system: rice leafroller (Cnaphalocrocis medinalis); test: Insecticidal effect on rice leafroller (Test Example 3); conditions: 500 ppm, 25° C., humidity 70%; for Insecticidal effect, Test Example 3: rice leafroller third-instar larvae, rice lamina immersed, four days after inoculation; for Insecticidal effect (Test Example 3), judged from mortality: rice lamina dip, third-instar larvae of rice leafroller, 4 days after inoculation
# In short: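 Insecticidal effect is judged by a predefined criterion from dead/alive counts four days after infesting air-dried lamina with third-instar larvae, kept on moistened filter paper at 25° C, 70% humidity.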
# [2] = test system: diamondback moth (Plutella xylostella); test: Insecticidal effect on diamondback moth (Test Example 1); conditions: diamondback moth; for Insecticidal effect, Test Example 1: mortality judged by criterion of Test Example 1; for Insecticidal effect (Test Example 1), judged from mortality: judged by the criterion of Test Example 1
# In short: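 Triplicate groups of 10 insects: eggs laid on Chinese cabbage seedling by adults, seedling immersed then air-dried, kept at 25° C. Day-6 hatch counts gave mortality, rated by criterion.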
# [3] = test system: common cutworm (Spodoptera Litura); test: Insecticidal effect on common cutworm (Test Example 2); conditions: 500 ppm, 25° C.; for Insecticidal effect, Test Example 2: common cutworm second-instar larvae, cabbage leaf immersed, eight days after inoculation; for Insecticidal effect (Test Example 2), judged from mortality: cabbage leaf dip, second-instar larvae of common cutworm, 8 days after inoculation
# In short: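 Air-dried treated material was placed in a closed dish with second-instar larvae and held at 25° C. Dead and live insects were counted eight days after inoculation, and mortality was calculated and scored against a fixed insecticidal-effect criterion. Three replicate groups of 10 insects were used.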
SMILES,"Insecticidal effect, Test Example 3 [1]","Insecticidal effect, Test Example 1 [2]","Insecticidal effect, Test Example 2 [3]","Insecticidal effect (Test Example 3), judged from mortality [1]","Insecticidal effect (Test Example 1), judged from mortality [2]","Insecticidal effect (Test Example 2), judged from mortality [3]"
Cc1cc(C(F)(F)C(F)(F)F)ccc1NC(=O)c1cccc(Cl)c1C(=O)NCc1cccc(Cl)c1 [compound 1335],A (100),A (100),C (89-80),–,–,–
Cc1cc(C(F)(F)C(F)(F)F)ccc1NC(=O)c1cccc(Cl)c1C(=O)NCc1cccc(Cl)c1Cl [compound 1353],A (100),A (100),A (100),–,–,–
Cc1cc(C(F)(F)C(F)(F)F)ccc1NC(=O)c1cccc(Cl)c1C(=O)NCc1ccccn1 [compound 1355],A (100),A (100),A (100),–,–,–
Cc1cc(C(F)(F)C(F)(F)F)ccc1NC(=O)c1cccc(Cl)c1C(=O)NC(C)c1ccccc1Cl (stereo not drawn) [compound 1362],A (100),A (100),A (100),–,–,–
Cc1cc(C(F)(F)C(F)(F)F)ccc1NC(=O)c1cccc(Cl)c1C(=O)NC(C)c1cccc(Cl)c1 (stereo not drawn) [compound 1364],A (100),A (100),A (100),–,–,–
Cc1cc(C(F)(F)C(F)(F)F)ccc1NC(=O)c1cccc(Cl)c1C(=O)NC(C)c1ccc(Cl)cc1 (stereo not drawn) [compound 1366],A (100),A (100),A (100),–,–,–
CC(C)NC(=O)c1c(Cl)cccc1C(=O)Nc1ccc(C(F)(F)C(F)(F)F)cc1F [compound 1382],A (100),A (100),A (100),–,–,–
CC(C)NC(=O)c1c(Cl)cccc1C(=O)Nc1ccc(C(F)(F)C(F)(F)F)cc1Cl [compound 1383],A (100),A (100),A (100),–,–,–
CC(C)NC(=O)c1c(Cl)cccc1C(=O)Nc1ccc(C(F)(F)C(F)(F)F)cc1C(F)(F)F [compound 1384],A (100),A (100),A (100),–,–,–
CC(C)NC(=O)c1c(I)cccc1C(=O)Nc1ccc(C(F)(F)C(F)(F)F)cc1F [compound 1385],A (100),A (100),A (100),–,–,–
CC(C)NC(=O)c1c(I)cccc1C(=O)Nc1ccc(C(F)(F)C(F)(F)F)cc1Cl [compound 1386],A (100),A (100),A (100),–,–,–
CC(C)NC(=O)c1c(I)cccc1C(=O)Nc1ccc(C(F)(F)C(F)(F)F)cc1C(F)(F)F [compound 1387],A (100),A (100),A (100),–,–,–
COc1cc(C(F)(F)C(F)(F)F)ccc1NC(=O)c1cccc(I)c1C(=O)NC(C)C [compound 1388],A (100),A (100),D (79-50),–,–,–
Cc1cc(C#N)ccc1NC(=O)c1cccc(I)c1C(=O)NC(C)C [compound 1389],A (100),A (100),A (100),–,–,–
Cc1cc(C(F)(F)C(F)(F)F)ccc1NC(=O)c1cccc(Cl)c1C(=O)NCCCO [compound 1399],A (100),A (100),A (100),–,–,–
Cc1cc(C(F)(F)C(F)(F)F)ccc1NC(=O)c1cccc(I)c1C(=O)NCc1ccccc1 [compound 1400],A (100),A (100),A (100),–,–,–
Cc1cc(C(F)(F)C(F)(F)F)ccc1NC(=O)c1cccc(I)c1C(=O)NCc1ccccc1Cl [compound 1402],A (100),A (100),A (100),–,–,–
Cc1ccccc1CNC(=O)c1c(I)cccc1C(=O)Nc1ccc(C(F)(F)C(F)(F)F)cc1C [compound 1404],A (100),A (100),C (89-80),–,–,–
Cc1cc(C(F)(F)C(F)(F)F)ccc1NC(=O)c1cccc(Cl)c1C(=O)N(C)Cc1ccccc1 [compound 1406],A (100),A (100),A (100),–,–,–

SMILES,"Insecticidal effect, Test Example 3 [1]","Insecticidal effect, Test Example 1 [2]","Insecticidal effect, Test Example 2 [3]","Insecticidal effect (Test Example 3), judged from mortality [1]","Insecticidal effect (Test Example 1), judged from mortality [2]","Insecticidal effect (Test Example 2), judged from mortality [3]"
C#CC(C)(C)NC(=O)c1ccccc1C(=O)Nc1ccc(C(F)(F)C(F)(F)F)cc1C [compound 1414],A (100),A (100),A (100),–,–,–
Cc1cc(C(F)(F)C(F)(F)F)ccc1NC(=O)c1cccc(Cl)c1C(=O)NC(C)(C)c1ccccc1 [compound 1417],A (100),A (100),A (100),–,–,–
Cc1cc(C(F)(F)C(F)(F)F)ccc1NC(=O)c1cccc(Cl)c1C(=O)NC(C)(C)Cc1ccccc1 [compound 1418],A (100),A (100),A (100),–,–,–
CC(C)(C)NC(=O)c1c(I)cccc1C(=O)Nc1ccc(C(F)(F)C(F)(F)F)cc1F [compound 1427],A (100),A (100),A (100),–,–,–
CC(C)(C)NC(=O)c1c(I)cccc1C(=O)Nc1ccc(C(F)(F)C(F)(F)F)cc1Cl [compound 1428],A (100),A (100),A (100),–,–,–
CC(C)(C)NC(=O)c1c(I)cccc1C(=O)Nc1ccc(C(F)(F)C(F)(F)F)cc1C(F)(F)F [compound 1429],A (100),A (100),A (100),–,–,–
Cc1cc(OC(F)F)ccc1NC(=O)c1cccc(I)c1C(=O)NCc1ccccc1 [compound 1430],A (100),A (100),D (79-50),–,–,–
Cc1cc(C(F)(F)C(F)(F)F)ccc1NC(=O)c1c(Cl)cccc1C(=O)N(C)Cc1ccccc1 [compound 1436],A (100),A (100),A (100),–,–,–
Cc1cc(C(F)(F)C(F)(F)F)ccc1NC(=O)c1cccc(I)c1C(=O)N(C)Cc1ccccc1 [compound 1438],A (100),A (100),A (100),–,–,–
Cc1cc(C(F)(F)C(F)(F)F)ccc1NC(=O)c1cccc(Cl)c1C(=O)N[C@@H](C)CO [compound 1445],–,–,–,A (100),A (100),A (100)
CC(C)(C)NC(=O)c1c(Cl)cccc1C(=O)Nc1ccc(C(F)(F)C(F)(F)F)cc1 [compound 1447],–,–,–,A (100),A (100),A (100)
CC(C)(C)NC(=O)c1c(Cl)cccc1C(=O)Nc1ccc(C(F)(F)C(F)(F)F)cc1F [compound 1448],–,–,–,A (100),A (100),A (100)
CC(C)(C)NC(=O)c1c(Cl)cccc1C(=O)Nc1ccc(C(F)(F)C(F)(F)F)cc1Cl [compound 1449],–,–,–,A (100),A (100),A (100)
CCCNC(=O)c1c(I)cccc1C(=O)Nc1ccc(OC(F)F)cc1C [compound 1450],–,–,–,A (100),A (100),A (100)
Cc1cc(OC(F)F)ccc1NC(=O)c1cccc(I)c1C(=O)NC1CC1 [compound 1452],–,–,–,A (100),A (100),A (100)
CCC(C)NC(=O)c1c(I)cccc1C(=O)Nc1ccc(OC(F)F)cc1C (stereo not drawn) [compound 1454],–,–,–,A (100),A (100),A (100)
Cc1cc(OC(F)F)ccc1NC(=O)c1cccc(Cl)c1C(=O)N[C@H](C)c1ccccc1 [compound 1458],–,–,–,A (100),A (100),A (100)
Cc1cc(C(F)(F)C(F)(F)F)ccc1NC(=O)c1cccc(Cl)c1C(=O)N[C@H](C)CO [compound 1460],–,–,–,A (100),A (100),C (89-80)
Cc1cc(C(F)(F)C(F)(F)F)ccc1NC(=O)c1cccc(I)c1C(=O)NC(C)(C)CO [compound 1464],–,–,–,A (100),A (100),A (100)

# Source: patent US6362369B1, “Phthalic acid diamide derivatives fluorine-containing aniline compounds as starting material, agricultural and horticultural insecticides, and a method for application of the insecticides” (Nihon Nohyaku Co., Ltd., priority 1997, dated 2002)
